The values below come from PMC11956004 (2025).

SMILES strings stand for the structures. Starred links: 1 amine or outer side, 2 acyl side, 3 side chain; linkers in the order of their positions; H or OH if unused. Positions of bridges follow the written chain, without caps; N, C: chain ends. Non-standard residues stand in square brackets, D forms with d. Residues, ends and D or L forms follow the SMILES beside them. Chains are numbered I, II in the order given. Actinocin(9to1) = Cc1c2oc3c(C)ccc(C(=O)[*:1])c3nc-2c(C(=O)[*:2])c(N)c1=O; NMeV = CN[C@H](C(=O)O)C(C)C; Sar = CNCC(=O)O

The subject of experiment [1] is AAAGCACGAAAA (DNA, duplex) AAAGCACGAAAA/TTTTCGTGCTTT
Kind of experiment: CD titration. The note with it: Mg2+ 5 mM, Na+ (50 mM sodium cacodylate); 50 mM sodium cacodylate pH 7.2; 20 μM duplex, drug 1-4 equivalents.

The subject of experiment [2] is AAAGCAACGAAA (DNA, duplex) AAAGCAACGAAA/TTTCGTTGCTTT
Kind of experiment: CD titration. The following applies: Mg2+ 5 mM, Na+ (50 mM sodium cacodylate); 50 mM sodium cacodylate pH 7.2; 20 μM duplex, drug 1-4 equivalents.

In experiment [3] the test system is AAGCAAACGAAA (DNA, duplex) AAGCAAACGAAA/TTTCGTTTGCTT
The experiment in a line: CD titration. The note with it: Mg2+ 5 mM, Na+ (50 mM sodium cacodylate); 50 mM sodium cacodylate pH 7.2; 20 μM duplex, drug 1-4 equivalents.

Experiment [4] relates to AAAAGCCGAAAA (DNA, duplex) AAAAGCCGAAAA/TTTTCGGCTTTT
The experiment in a line: fluorescence quenching of Dox, Hill fit. The note with it: Mg2+ 5 μM (so in the source); 50 μM Na cacodylate pH 7.3 (so in the source); 1 μM Dox alone, apparent; Kd decreases when ActD added.

The test system is the same in experiment [5]. Kind of experiment: CD titration. The following applies: Mg2+ 5 mM, Na+ (50 mM sodium cacodylate); 50 mM sodium cacodylate pH 7.2; 20 μM duplex, drug 1-4 equivalents.
Experiment [6] relates to d(AGCCGT)2 (DNA, duplex) AGCCGT/ACGGCT. Kind of experiment: X-ray crystallography (1.57 Å). The note with it: Mn2+ 3 mM, Li+ 30 mM, 25 mM MES pH 6.5, 3% PEG400, 20 °C.

Regarding `COc1cccc2c1C(=O)c1c(O)c3c(c(O)c1C2=O)C[C@@](O)(C(=O)CO)C[C@@H]3O[C@H]1C[C@H](N)[C@H](O)[C@H](C)O1`, the binding entry in experiment [1] is given as “yes”; in experiment [2], “yes”; in experiment [3] it was “yes”; in experiment [5] it was “yes”; in experiment [6] (ternary complex with actinomycin D, intercalated at C4pG5), “yes”. Besides, in experiment [4], the Kd is 2130 nM.

Take `Cc1c2oc3c(C)ccc(C(=O)N[C@@H]4C(=O)N[C@H](C(C)C)C(=O)N5CCC[C@H]5C(=O)N(C)CC(=O)N(C)[C@@H](C(C)C)C(=O)O[C@@H]4C)c3nc-2c(C(=O)N[C@@H]2C(=O)N[C@H](C(C)C)C(=O)N3CCC[C@H]3C(=O)N(C)CC(=O)N(C)[C@@H](C(C)C)C(=O)O[C@@H]2C)c(N)c1=O` (I: T[dV]P[Sar][NMeV] / II: T[dV]P[Sar][NMeV]; ester I:1-I:C, II:1-II:C; linker I:N-II:N via Actinocin(9to1)): the binding entry in experiment [1] is recorded as “yes”; in experiment [2], “yes”; in experiment [3] it was “yes”; in experiment [5], “yes”; in experiment [6] (ternary complex with doxorubicin, intercalated at G2pC3), “yes”.
